{
  "source": "patent US11946094B2",
  "about": "“Combination therapies and methods of use thereof” (Augusta University Research Institute, Inc., priority 2017, dated 2024)",
  "key": {"OVCAR-8 cells [1]": {"tested_on": "OVCAR-8 cells", "assay": "Drug titration (GI50) with S100A11 siRNA knockdown versus sham control", "type": "cell-based", "conditions": "serial dilution of drug, three replicates", "method": "Statistical analyses were performed using the R language and environment for statistical computing (R version 3.3.1; R Foundation for Statistical Computing) and Microsoft Excel. Student's T-test (two-tailed, unpaired) was used to calculate p-values for confirmation of drug effect. GI50 values were calculated using a four-parameter logistic function to obtain a classical “s” curve for drug titrations using SigmaPlot (Systat Software, San Jose, CA). Heatmaps were created using the R package “pheatmap”. Clustering was done with WPGMA hierarchical clustering. QIAGEN's Ingenuity Pathway Analysis (IPA®, QIAGEN Redwood City) was utilized for assessment of network and pathway contributions of top genes identified using the NCI-60 correlations.\nAn important measure of synergism is the dosage reduction of a therapeutic compound by another agent. Titration screening with several compounds was performed to compare growth curves with and without knockdown of S100A11 or KLHL5. […] KLHL5 also was synergistic with other cell cycle inhibitors and PI3K-AKT-mTOR inhibitors. Titration curves and calculation of GI50 were performed for twenty-four compounds."}, "OVCAR-8 cells [2]": {"tested_on": "OVCAR-8 cells", "assay": "Drug-siRNA combination screen: 346-compound anticancer library at 100 nM, CCK-8 viability", "conditions": "OVCAR-8; for Score (sum of observed SD values for 18 genes): drug 100 nM plus siRNA knockdown of each of 18 genes, distance VAB−VA×VB in SD, single gene contributes at most +5 / −5, negative = synergy, positive = antagonism; for number of tested HDACi highly synergistic with the gene knockdown: 12 tested HDACi; for number of antagonistic/additive or highly antagonistic compounds with the gene knockdown: 346 compounds"}, "AB1-HA tumor model": {"tested_on": "AB1-HA tumor model", "conditions": "CTX treatment at Day 9; cited from earlier work"}},
  "data": [
    {"compound": "O=C(/C=C/c1cccc(S(=O)(=O)Nc2ccccc2)c1)NO", "note": "[Belinostat]", "values": [
      {"measurement": "dose reduction of GI50 value by S100A11 siRNA versus sham control", "setting": "OVCAR-8 cells [1]", "value": 5.56, "unit": "fold"},
      {"measurement": "Score (sum of observed SD values for 18 genes)", "setting": "OVCAR-8 cells [2]", "value": "−20.81", "unit": "SD"},
      {"measurement": "synergy / antagonism of drug with gene knockdowns, in words", "setting": "OVCAR-8 cells [2]; drug 100 nM, panel of 18 siRNA knockdowns", "value": "mostly synergistic"}
    ]},
    {"compound": "O=P1(N(CCCl)CCCl)NCCCO1", "note": "(stereo not drawn) [Cyclophosphamide]", "values": [
      {"measurement": "cure rate", "setting": "AB1-HA tumor model", "value": 75, "unit": "%"}
    ]},
    {"compound": "Cn1cc(CNCC2CCN(c3ncc(C(=O)NO)cn3)CC2)c2ccccc21", "note": "[JNJ-26481585, Quisinostat]", "values": [
      {"measurement": "dose reduction of GI50 value by S100A11 siRNA versus sham control", "setting": "OVCAR-8 cells [1]", "value": 5.53, "unit": "fold"},
      {"measurement": "Score (sum of observed SD values for 18 genes)", "setting": "OVCAR-8 cells [2]", "value": "−2.31", "unit": "SD"}
    ]},
    {"compound": "SLC7A11: siRNA knocking down SLC7A11; sense GGCUGAUUUAUCUUCGAUAtt (SEQ ID NO 31) (sense GGCUGAUUUAUCUUCGAUANN; antisense UAUCGAAGAUAAAUCAGCCNN; listed as RNA, chemistry not given here)", "values": [
      {"measurement": "number of tested HDACi highly synergistic with the gene knockdown", "setting": "OVCAR-8 cells [2]", "value": "at least six"},
      {"measurement": "number of antagonistic/additive or highly antagonistic compounds with the gene knockdown", "setting": "OVCAR-8 cells [2]", "value": "Twelve or fewer"}
    ]},
    {"compound": "SNS-314 Mesylate", "values": [
      {"measurement": "Score (sum of observed SD values for 18 genes)", "setting": "OVCAR-8 cells [2]", "value": "−1.05", "unit": "SD"}
    ]},
    {"compound": "USP40: siRNA knocking down USP40; sense GGAAACUAGCUGUUAUACAtt (SEQ ID NO 35) (sense GGAAACUAGCUGUUAUACANN; antisense UGUAUAACAGCUAGUUUCCNN; listed as RNA, chemistry not given here)", "values": [
      {"measurement": "number of tested HDACi highly synergistic with the gene knockdown", "setting": "OVCAR-8 cells [2]", "value": "at least six"},
      {"measurement": "number of antagonistic/additive or highly antagonistic compounds with the gene knockdown", "setting": "OVCAR-8 cells [2]", "value": "Twelve or fewer"}
    ]},
    {"compound": "WYE-354", "values": [
      {"measurement": "Score (sum of observed SD values for 18 genes)", "setting": "OVCAR-8 cells [2]", "value": "−13.86", "unit": "SD"}
    ]}
  ]
}
